# Measurements reported in article PMC10141592, “Stretching Peptides to Generate Small Molecule β-Strand Mimics” (ACS Central Science, 2023).
# Read-outs that look alike come from different tables or passages of the source. *1 amine or outer side, *2 acyl side, *3 side chain or, on linkers, in order; H or OH if unused. Where a SMILES comes first, the peptide text is derived from it. Bridges are numbered along the chain shown (N, C = ends). [ ]: non-standard residue; d: D form. The star is where a group is joined. Dodecyloxycarbonyl = CCCCCCCCCCCCOC(=O)*; CH2C≡CC≡CCH2 = C(C#CC[*:2])#CC[*:1]; NMePra = C#CC[C@H](NC)C(=O)O; X1 = CCCCCCCCCCCCCCCCOC(=O)*; NMeS = CN[C@@H](CO)C(=O)O; Dab = NCC[C@H](N)C(=O)O; Propargyl = C#CC*
# Experiments:
# [1] = test system: S. epidermidis RP26a; assay type: cell-based; conditions: 24 h
# Procedure: (§1) Minimum Inhibitory Concentration Assay
# (§2) MICs were performed in accordance with the broth microdilution protocol from the Clinical and Standards Laboratory Institute.3 Alkynomycins were dissolved at 10 mg/mL in DMSO and two-fold serial dilutions were made across a 96-well plate containing Muller-Hinton (MH) broth. One plate was used for each indicator organism, and each well reached a final inoculum of 5×10^5 colony forming units per mL. Using OD600 readings normalized to a negative control, MICs were recorded as the lowest concentration at which growth was inhibited after a 24 hr incubation at 37 C. Controls were included on each plate to ensure peptide and media sterility. MICs are reported in Table 2 and Tables S4, S5 as an average of at least three independent trials.
# (§3) Indicator organisms were stored at -80 C as glycerol stocks. Each organism was streaked onto tryptic soy agar and grown for 24 hr at 37 C. Single colonies were picked and used to inoculate MH broth. Bacteria culture was diluted to reach an OD600 of 0.015 prior to being used for MIC assays. […]
# [2] = test system: E. coli BAS901 (permeabilized); assay type: cell-based; conditions: CLSI broth microdilution, Muller-Hinton broth, 5×10^5 CFU/mL, 24 hr at 37 C, OD600, performed in triplicate
# Procedure: as §1, §2, §3
# [3] = test system: MRSA USA 300; assay type: cell-based; conditions: USA 300, 24 h
# Procedure: as §1, §2, §3
# [4] = test system: E. coli MG1655; assay type: cell-based; conditions: MG1655, 24 h
# Procedure: as §1, §2, §3
# [5] = test system: E. coli BAS901 (permeabilized); conditions: previously reported value provided for reference; cited from earlier work
# [6] = test system: S. epidermidis RP26a; parameters: method as in 2 sources, ref 38 = [38]; PMID 21095572; doi:10.1016/j.chembiol.2010.09.009; Smith P. A.; Roberts T. C.; Romesberg F. E. Broad-spectrum antibiotic activity of the arylomycin natural products is masked by natural target mutations . Chem. Biol. 2010 , 17 ( 11 ), 1223 – 1231 . ||| ref 38 (a number printed in a supplementary file, which may have a reference list of its own: not looked up in the article's list); conditions: previously reported value provided for reference; cited from earlier work
# [7] = test system: E. coli MG1655; parameters: method as in 2 sources, ref 38 = [38]; PMID 21095572; doi:10.1016/j.chembiol.2010.09.009; Smith P. A.; Roberts T. C.; Romesberg F. E. Broad-spectrum antibiotic activity of the arylomycin natural products is masked by natural target mutations . Chem. Biol. 2010 , 17 ( 11 ), 1223 – 1231 . ||| ref 38 (a number printed in a supplementary file, which may have a reference list of its own: not looked up in the article's list); conditions: previously reported value provided for reference; cited from earlier work
# [8] = test system: MRSA USA 300; conditions: previously reported value provided for reference; cited from earlier work
# Text: Table 2 Minimum Inhibitory Concentration of Alkynomycins against Gram-Positive and Gram-Negative Bacteria ^a | column: MRSA
compound,measurement,setting,value
CCCCCCCCCCCCOC(=O)N[C@@H](CCN)C(=O)N(C)[C@H]1CC#CC#CC[C@@H](C(N)=O)NC(=O)[C@H](C)NC1=O [Compound 10],MIC S. epidermidis,[1],4 µg/mL
same,MIC E. coli Δ,[2],4 µg/mL
same,MIC MRSA,[3],16 µg/mL
CCCCCCCCCCCCCCCCOC(=O)N[C@@H](CCN)C(=O)N(C)[C@H]1CC#CC#CC[C@@H](C(N)=O)NC(=O)[C@H](C)NC1=O [Compound 11],MIC S. epidermidis,[1],4 µg/mL
same,MIC E. coli Δ,[2],4 µg/mL
same,MIC MRSA,[3],8 µg/mL
same,MIC E. coli,[4],> 64 µg/mL
CCCCCCCCCCCCOC(=O)N[C@@H](CCN)C(=O)N(C)[C@@H]1CC#CC#CC[C@H](C(N)=O)NC(=O)[C@H](C)NC1=O [Compound 12],MIC S. epidermidis,[1],16 µg/mL
same,MIC E. coli Δ,[2],16 µg/mL
same,MIC E. coli,[4],> 64 µg/mL
CCCCCCCCCCCCCCCCOC(=O)N[C@@H](CCN)C(=O)N(C)[C@@H]1CC#CC#CC[C@H](C(N)=O)NC(=O)[C@H](C)NC1=O [Compound 13],MIC S. epidermidis,[1],16 µg/mL
same,MIC E. coli Δ,[2],32 µg/mL
same,MIC E. coli,[4],> 64 µg/mL
CCCCCCCCCCCCOC(=O)N[C@@H](CCN)C(=O)N(C)[C@H]1CC#CC#CCOC[C@@H](C(N)=O)NC(=O)[C@H](C)NC1=O [Compound 14],MIC S. epidermidis,[1],16 µg/mL
same,MIC E. coli Δ,[2],16 µg/mL
same,MIC MRSA,[3],16 µg/mL
same,MIC E. coli,[4],> 64 µg/mL
CCCCCCCCCCCCCCCCOC(=O)N[C@@H](CCN)C(=O)N(C)[C@H]1CC#CC#CCOC[C@@H](C(N)=O)NC(=O)[C@H](C)NC1=O [Compound 15],MIC S. epidermidis,[1],32 µg/mL
same,MIC E. coli Δ,[2],16 µg/mL
same,MIC MRSA,[3],16 µg/mL
same,MIC E. coli,[4],> 64 µg/mL
CCCCCCCCCCCCOC(=O)N[C@@H](CCN)C(=O)N(C)[C@H]1CC#CC#CC[C@H](C(N)=O)NC(=O)[C@H](C)NC1=O [Compound S1],MIC S. epidermidis,[1],> 64 µg/mL
same,MIC E. coli Δ,[2],> 64 µg/mL
same,MIC E. coli,[4],> 64 µg/mL
CCCCCCCCCCCCCCCCOC(=O)N[C@@H](CCN)C(=O)N(C)[C@H]1CC#CC#CC[C@H](C(N)=O)NC(=O)[C@H](C)NC1=O [Compound S2],MIC S. epidermidis,[1],> 64 µg/mL
same,MIC E. coli Δ,[2],> 64 µg/mL
same,MIC E. coli,[4],> 64 µg/mL
CCCCCCCCCCCCOC(=O)N[C@@H](CCN)C(=O)N(C)[C@H]1COCC#CC#CC[C@@H](C(N)=O)NC(=O)[C@H](C)NC1=O [Compound S3],MIC S. epidermidis,[1],> 64 µg/mL
same,MIC E. coli Δ,[2],> 64 µg/mL
same,MIC E. coli,[4],> 64 µg/mL
CCCCCCCCCCCCCCCCOC(=O)N[C@@H](CCN)C(=O)N(C)[C@H]1COCC#CC#CC[C@@H](C(N)=O)NC(=O)[C@H](C)NC1=O [Compound S4],MIC S. epidermidis,[1],64 µg/mL
same,MIC E. coli Δ,[2],64 µg/mL
same,MIC E. coli,[4],> 64 µg/mL
CCCCCCCCCCCCOC(=O)N[C@@H](CCN)C(=O)N(C)[C@H]1COCC#CC#CC[C@H](C(N)=O)NC(=O)[C@H](C)NC1=O [Compound S5],MIC S. epidermidis,[1],> 64 µg/mL
same,MIC E. coli Δ,[2],> 64 µg/mL
same,MIC E. coli,[4],> 64 µg/mL
CCCCCCCCCCCCCCCCOC(=O)N[C@@H](CCN)C(=O)N(C)[C@H]1COCC#CC#CC[C@H](C(N)=O)NC(=O)[C@H](C)NC1=O [Compound S6],MIC S. epidermidis,[1],64 µg/mL
same,MIC E. coli Δ,[2],64 µg/mL
same,MIC E. coli,[4],> 64 µg/mL
CCCCCCCCCCCCOC(=O)N[C@@H](CCN)C(=O)N(C)[C@H]1COCC#CC#CCOC[C@@H](C(N)=O)NC(=O)[C@H](C)NC1=O [Compound S7] (Dodecyloxycarbonyl-[Dab][NMeS]AS-NH2; linker 2-4 via CH2C≡CC≡CCH2),MIC S. epidermidis,[1],> 64 µg/mL
same,MIC E. coli Δ,[2],> 64 µg/mL
same,MIC E. coli,[4],> 64 µg/mL
CCCCCCCCCCCCCCCCOC(=O)N[C@@H](CCN)C(=O)N(C)[C@H]1COCC#CC#CCOC[C@@H](C(N)=O)NC(=O)[C@H](C)NC1=O [Compound S8] (X1-[Dab][NMeS]AS-NH2; linker 2-4 via CH2C≡CC≡CCH2),MIC S. epidermidis,[1],64 µg/mL
same,MIC E. coli Δ,[2],64 µg/mL
same,MIC E. coli,[4],> 64 µg/mL
CCCCCCCCCCCCOC(=O)N[C@@H](CCN)C(=O)N[C@H]1CC#CC#CC[C@@H](C(N)=O)NC(=O)[C@H](C)NC1=O [Compound S9],MIC S. epidermidis,[1],> 64 µg/mL
same,MIC E. coli Δ,[2],> 64 µg/mL
same,MIC E. coli,[4],> 64 µg/mL
C#CCOC[C@H](NC(=O)[C@H](C)NC(=O)[C@H](CC#C)N(C)C(=O)[C@H](CCN)NC(=O)OCCCCCCCCCCCC)C(N)=O [Compound S10] (Dodecyloxycarbonyl-[Dab][NMePra]AS(Propargyl)-NH2),MIC S. epidermidis,[1],> 64 µg/mL
same,MIC E. coli,[4],> 64 µg/mL
Arylomycin A-C16,MIC E. coli Δ,[5],8 µg/mL
same,MIC S. epidermidis,[6],0.5 µg/mL
same,MIC E. coli,[7],> 64 µg/mL
same,MIC MRSA,[8],32 µg/mL
